Reference: patent US8962810B2, “Macrocyclic heterocyclic compound for inhibiting hepatitis C virus and preparation and use thereof” (AB Pharma Ltd., priority 2011, dated 2015)

What follows are molecules tested against T1, HCV Protease (HCV NS3-4A) (Hepatitis C virus genotype 1a, UniProt P27958) (assay: HCV Protease (HCV NS3-4A) anti-activity assay, fluorescence quenching (FRET)).
T1 construct: HCV Protease: HCV NS3-4A, self-prepared; made in house
Format: biochemical
Protocol: Method of HCV Protease (HCV NS3-4A) Anti-Activity Assay:
HCV Protease (HCV NS3/4A) anti-activity was measured by an inter fluorescence quenching system. EDANS group and DABCYL group were bonded on each side of a peptide. When protein cleavage started, fluorescence quenching of EDANS by DABCYL was detected. We used a high throughput screening model for HCV NS3/4A protease inhibitors, the tested drugs were prepared with 5 different concentrations, positive control and negative control were set in the same time. In the optimized reaction system, fluorescence were determined at ex=355, em=520 by a Polarstar fluorescence detector. Calculate the inhibition rate of each concentration; calculate the half maximal inhibitory concentration (IC50) with the method of Reed-Muench.
Materials: HCV Protease: HCV NS3-4A, self-prepared, stored at −70. HCV Protease substrate (FRET-S): Ac-Asp-Glu-Asp(EDANS)-Glu-Glu-Abu-ψ-[COO]-Ala-Ser-Lys-(DABCYL)-NH2, supplied by AnaSpec USA, prepared of 100 μM by DMSO, distributed and stored at −20 without light. Buffer solution: 30 mM NaCl, 5 mM CaCl2, 10 mM DTT, 50 mM Tris (pH7.8).
Instrument: fluorescence detector Polarstar from Germany Company BMG
Preparation and operation: preparation of 10 mg/mL by DMSO, dilute of 10000, 2000, 400, 80, 16 ng/mL as tested concentrations by buffer solutions, adding 20 μL into each well, the total reaction system is 200 μL, to make the final concentrations of 1000, 200, 40, 8, 1.6 ng/mL. Add 140 μL buffer solution, 20 μL drug solution, 20 μL HCV protease, and 20 μL FRET-S substrate with final concentration of 0.25 μM into 96-well fluorescence microtiterplate, the reaction started at 37, set control wells of protease-substrate reaction and of isolate substrate and isolate protease, fluorescence signals were detected by fluorescence detector (ex=355,em=520). Calculate the inhibition rates of samples for each concentration by comparison of fluorescence value of sample in each well and the fluorescence control value of enzyme, calculate the half maximal inhibitory concentration (IC50) of samples to HCV protease with the method of Reed-Muench.
THF and Et2O were distilled from sodium metal and benzophenone. DCM, pentane and hexane were distilled form calcium hydride. Special raw materials and intermediates in the invention were supplied by Zannan SciTech Co. for ordered processing, Ltd. in Shanghai, others reagents were purchased from Shanghai reagent company, Aldrich, Acros etc. If intermediates or products of synthesis were not enough for the next step of reaction, the synthesis shall be repeated until it is sufficient. The HCV protease (HCV NS3-4A) inhibitory activity assays in the present invention were performed by relevant cooperation service units of China Institutes for Biological Science in Beijing.

T1 sequence (P27958 1658-1711): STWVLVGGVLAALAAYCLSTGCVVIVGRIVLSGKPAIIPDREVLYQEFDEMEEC
T1 sequence (P27958 1027-1657): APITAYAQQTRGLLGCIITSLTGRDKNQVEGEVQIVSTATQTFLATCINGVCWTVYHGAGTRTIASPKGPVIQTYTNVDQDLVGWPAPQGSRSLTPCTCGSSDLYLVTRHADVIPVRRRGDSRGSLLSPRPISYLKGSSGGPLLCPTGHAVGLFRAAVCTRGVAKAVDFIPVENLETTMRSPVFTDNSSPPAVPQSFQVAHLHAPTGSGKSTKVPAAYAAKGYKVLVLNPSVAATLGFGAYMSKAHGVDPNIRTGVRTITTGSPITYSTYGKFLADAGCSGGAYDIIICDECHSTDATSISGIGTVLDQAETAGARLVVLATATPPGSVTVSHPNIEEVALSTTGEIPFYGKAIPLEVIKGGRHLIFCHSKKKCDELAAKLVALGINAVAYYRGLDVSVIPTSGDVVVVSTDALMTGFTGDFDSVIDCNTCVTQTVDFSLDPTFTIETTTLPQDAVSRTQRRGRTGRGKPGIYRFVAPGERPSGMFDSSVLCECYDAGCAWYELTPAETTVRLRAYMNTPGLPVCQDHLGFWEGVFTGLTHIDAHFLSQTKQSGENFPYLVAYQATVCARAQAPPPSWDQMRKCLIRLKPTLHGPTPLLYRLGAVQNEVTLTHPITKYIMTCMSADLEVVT

IC50, 5.1 to 50 nM:
CCC1CC1(NC(=O)C1CC2CN1C(=O)C(C(C)(C)C)NC(=O)OCCCCCCCCOc1cccc3c1CN(C3)C(=O)O2)C(=O)NS(=O)(=O)C1CC1 (stereo not drawn) [Compound 15y]
CC[C@H]1C[C@@]1(NC(=O)C1C[C@@H]2CN1C(=O)[C@H](C(C)(C)C)NC(=O)OCC(C)(C)C/C=C/COc1c(OC)ccc3c1CN(C3)C(=O)O2)C(=O)NS(=O)(=O)C1CC1 (stereo partly drawn) [Compound 15h]
CC[C@H]1C[C@@]1(NC(=O)C1C[C@@H]2CN1C(=O)[C@H](C(C)(C)C)NC(=O)OCC(C)(C)CCCCCOCc1cccc3c1CN(C3)C(=O)O2)C(=O)NS(=O)(=O)C1CC1 (stereo partly drawn) [Compound 15av]

IC50, 0.1 to 5 nM:
CC[C@H]1C[C@@]1(NC(=O)C1C[C@@H]2CN1C(=O)[C@H](C(C)(C)C)NC(=O)OCC(C)(C)OC/C=C/COc1cccc3c1CN(C3)C(=O)O2)C(=O)NS(=O)(=O)C1CC1 (stereo partly drawn) [Compound 15aj]
CC[C@H]1C[C@@]1(NC(=O)C1C[C@@H]2CN1C(=O)[C@H](C(C)(C)C)NC(=O)OCC(C)(C)CCCCCOc1ccc3c(c1)CN(C3)C(=O)O2)C(=O)NS(=O)(=O)C1CC1 (stereo partly drawn) [Compound 15bp]
C=C[C@H]1C[C@@]1(NC(=O)C1C[C@@H]2CN1C(=O)[C@H](C(C)(C)C)NC(=O)OCCCCCCCOc1cccc3c1CN(C3)C(=O)O2)C(=O)NS(=O)(=O)C1CC1 (stereo partly drawn) [Compound 15ab]
C=C[C@H]1C[C@@]1(NC(=O)C1C[C@@H]2CN1C(=O)[C@H](C(C)(C)C)NC(=O)OCCC/C=C/CCOc1cccc3c1CN(C3)C(=O)O2)C(=O)NS(=O)(=O)C1CC1 (stereo partly drawn) [Compound 15an]
CC[C@H]1C[C@@]1(NC(=O)C1C[C@@H]2CN1C(=O)[C@H](C(C)(C)C)NC(=O)OCC(C)(C)CCCCc1c3c(cc4c1OCO4)CN(C3)C(=O)O2)C(=O)NS(=O)(=O)C1CC1 (stereo partly drawn) [Compound 15by]
C=C[C@H]1C[C@@]1(NC(=O)C1C[C@@H]2CN1C(=O)[C@H](C(C)(C)C)NC(=O)OCC(C)(C)CCCCOc1cccc3c1CN(C3)C(=O)O2)C(=O)NS(=O)(=O)C1CC1 (stereo partly drawn) [Compound 15as]
C=C[C@H]1C[C@@]1(NC(=O)C1C[C@@H]2CN1C(=O)[C@H](C(C)(C)C)NC(=O)OCC(C)(C)CCCCCOc1ccc3c(c1)CN(C3)C(=O)O2)C(=O)NS(=O)(=O)C1CC1 (stereo partly drawn) [Compound 15bn]
CCC1CC1(NC(=O)C1CC2CN1C(=O)C(C(C)(C)C)NC(=O)OCC(C)(C)CCCCCOc1cc(OC)cc3c1CN(C3)C(=O)O2)C(=O)NS(=O)(=O)C1CC1 (stereo not drawn) [Compound 15v]
C=CC1CC1(NC(=O)C1CC2CN1C(=O)C(C(C)(C)C)NC(=O)OCC(C)(C)CCCCCOc1cccc3c1CN(C3)C(=O)O2)C(=O)NS(=O)(=O)C1CC1 (stereo not drawn) [Compound 15at]
CC[C@H]1C[C@@]1(NC(=O)C1C[C@@H]2CN1C(=O)[C@H](C(C)(C)C)NC(=O)OCC(F)(F)CCCCOc1cccc3c1CN(C3)C(=O)O2)C(=O)NS(=O)(=O)C1CC1 (stereo partly drawn) [Compound 15ba]
C=C[C@H]1C[C@@]1(NC(=O)C1C[C@@H]2CN1C(=O)[C@H](C(C)(C)C)NC(=O)OCCCCCCCOc1ccc3c(c1)CN(C3)C(=O)O2)C(=O)NS(=O)(=O)C1CC1 (stereo partly drawn) [Compound 15bf]
C=CC1CC1(NC(=O)C1CC2CN1C(=O)C(C(C)(C)C)NC(=O)OCCCC=Cc1c3c(cc4c1OCO4)CN(C3)C(=O)O2)C(=O)NS(=O)(=O)C1CC1 (stereo not drawn) [Compound 15bt]
C=C[C@H]1C[C@@]1(NC(=O)C1C[C@@H]2CN1C(=O)[C@H](C(C)(C)C)NC(=O)OCC(C)(C)C/C=C/COc1cccc3c1CN(C3)C(=O)O2)C(=O)NS(=O)(=O)C1CC1 (stereo partly drawn) [Compound 15aq]
C=CC1CC1(NC(=O)C1CC2CN1C(=O)C(C(C)(C)C)NC(=O)OCCCCCCOc1cccc3c1CN(C3)C(=O)O2)C(=O)NS(=O)(=O)C1CC1 (stereo not drawn) [Compound 15aa]

IC50, 51 to 300 nM:
CC[C@H]1C[C@@]1(NC(=O)C1C[C@@H]2CN1C(=O)[C@H](C(C)(C)C)NC(=O)OCC(C)(C)CCCCNC(=O)c1cccc3c1CN(C3)C(=O)O2)C(=O)NS(=O)(=O)C1CC1 (stereo partly drawn) [Compound 15bc]
